The text below walks through data of patent US5068325A, “4,5,7,8-tetrahydro-6H-thiazolo[5,4-d]azepines, their preparation and their use as pharmaceutical compositions” (priority 1988, dated 1991).

The target of one experiment is dopamine D2-receptors (Rattus norvegicus, UniProt P61169). Kind of experiment: affinity for dopamine D2-receptors by displacement experiments with [3H]-spiperone (rat striatum membranes). Type of experiment: binding. The conditions noted are these: for Ki: [3H]-spiperone, high-affinity form of the dopamine receptor; for α2-IC50 / D2-Ki: relative affinity for dopamine-D2 receptors compared with α2-adrenoceptors, the higher, the higher the D2/α2 selectivity. The procedure: 1Determining the affinity for dopamine D2-receptors by displacement experiments with [^3 H]-spiperone (Modified Method of W. Billard et al., Life Sci. 35, 1885 (1984) and D. J. de Vries and P. M. Beart, Eur. J. Pharmacol. 109, 417 (1985))
Male rats (of the Chbb:Thom strain weighing about 200 g) were killed by a blow to the back of the neck. The brains were removed and dissected on ice. The striata were dissected out, weighed and homogenised in 25 volumes of tris buffer (50 mM tris-HCl, 1 mM EDTA, 5 mM MgCl2 and 1 mM ascorbic acid) for 30 seconds in an Ultra-Turrax at maximum speed, followed by 10 cycles in a Potter-Elvehjem at 1400 rpm. The pellet obtained after centrifuging at 50,000×g at 4° C. for 15 minutes was again taken up in 25 ml of tris buffer and centrifuged under the above conditions. The supernatant was discarded and the pellet obtained was incubated in 25 ml of tris buffer at 37° C. for 30 minutes and then centrifuged again at 50,000×g at 4° C. for 15 minutes. Finally, the pellet obtained was mixed with tris buffer to obtain a homogenate dilution of 1:500 (based on the weight of the striata).
1 ml aliquots of the membrane preparation were incubated with 1 ml of a solution of 0.25 nM [^3 H]-spiperone ([…], Messrs. DuPont NEN) and at increasing concentrations of the test substance (10^-11 to 10^-4 M) at ambient temperature for one hour. Incubation was ended by the addition of 5 ml of ice cold tris buffer and filtration using Whatman GF/B filters. The filters were washed twice, each time with 5 ml of ice cold buffer. The radioactivity of the filters was determined by liquid scintillation measurement in Instagel^(R) (Messrs. Canberra Packard). Non-specific binding was determined in the presence of 10^-5 M haloperidol (Sigma Chemical Co.).
Displacement curves were obtained from the data using the TOPFIT programming package (G. Heinzel in "Pharmacokinetics During Drug Development: Data Analysis and Evaluation Techniques", G. Bozler and J. M. van Rossum Eds., G. Fischer Verlag, Stuttgart 1982, 207).

In a further experiment the target is T1, alpha-2 receptors (Rattus norvegicus, UniProt P22909).
T1 sequence (P22909 1-465): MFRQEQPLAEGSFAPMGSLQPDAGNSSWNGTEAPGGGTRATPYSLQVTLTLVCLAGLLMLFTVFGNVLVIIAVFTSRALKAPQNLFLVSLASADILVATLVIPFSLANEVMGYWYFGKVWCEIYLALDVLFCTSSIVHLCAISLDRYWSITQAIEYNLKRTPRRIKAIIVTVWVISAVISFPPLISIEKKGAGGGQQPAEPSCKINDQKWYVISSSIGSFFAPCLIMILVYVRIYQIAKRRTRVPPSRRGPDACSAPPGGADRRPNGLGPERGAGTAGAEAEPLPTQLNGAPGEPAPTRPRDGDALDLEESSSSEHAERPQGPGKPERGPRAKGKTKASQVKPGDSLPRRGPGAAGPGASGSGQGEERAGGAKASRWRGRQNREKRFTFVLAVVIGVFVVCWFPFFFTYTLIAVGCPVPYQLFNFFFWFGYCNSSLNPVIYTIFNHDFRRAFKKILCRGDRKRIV
Kind of experiment: affinity for alpha-2 receptors by displacement experiments with [3H]-clonidine (rat cortex membranes). Format: binding. The conditions noted are these: read-out: α2-IC50.

Chain of dopamine D2-receptors (P61169 whole entry): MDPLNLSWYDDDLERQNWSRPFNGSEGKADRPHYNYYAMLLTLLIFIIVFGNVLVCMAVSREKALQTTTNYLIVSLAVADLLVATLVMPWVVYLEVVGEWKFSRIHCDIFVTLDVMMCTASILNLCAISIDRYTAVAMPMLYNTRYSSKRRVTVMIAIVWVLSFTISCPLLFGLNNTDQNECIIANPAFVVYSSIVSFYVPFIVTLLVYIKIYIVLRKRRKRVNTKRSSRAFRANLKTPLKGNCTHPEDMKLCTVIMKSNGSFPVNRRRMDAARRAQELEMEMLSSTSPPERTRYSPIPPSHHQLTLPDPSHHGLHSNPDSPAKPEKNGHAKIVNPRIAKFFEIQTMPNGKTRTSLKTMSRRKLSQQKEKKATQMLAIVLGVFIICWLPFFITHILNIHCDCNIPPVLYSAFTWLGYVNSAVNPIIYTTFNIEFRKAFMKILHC
Experimental for alpha-2 receptors: Determination of the affinity for alpha-2 receptors by displacement experiments with [^3 H] clonidine (Modified Method of B. Jarrott, W. J. Louis and R. J. Summers, Biochem. Pharmacol. 27, 141 (1979))
A male rat (Chbb:Thom strain weighing about 200 g) was killed by a blow to the back of the neck. The brain was removed and the cortex dissected out, weighed and homogenised in 25 volumes of tris buffer (50 mM tris- HCl, pH 7.50) for 30 seconds in an Ultra-Turrax at maximum speed, followed by 10° Cycles in a Potter- Elvehjem at 1400 rpm. The homogenised material was combined with tris buffer to obtain a homogenate dilution of 1:50 (based on the weight of the cortex).
1 ml aliquots of the membrane preparation were incubated for three hours at ambient temperature with 1 ml of a solution of 1 nM of [^3 H]-clonidine (2.2 TBq/mmol, Messrs. DuPont NEN) and with increasing concentrations of the test substance (10^-11 to 10^-4 M). Incubation was ended by the addition of 5 ml of ice-cold tris buffer and filtration through Whatman GF/B filters. The filters were washed twice, each time with 5 ml of ice cold buffer. The radioactivity of the filters was determined by liquid scintillation measurement in Instagel(R) (Messrs. Canberra Packard). The non-specific binding was determined in the presence of 10^-5 M of oxymetazoline (Sigma Chemical Co.).

Regarding `Nc1nc2c(s1)CCN(CC=Cc1ccc([N+](=O)[O-])cc1)CC2` [Example 4i, 2-Amino-6-(3-(4-nitro-phenyl)allyl)-4,5,7,8-tetrahydro-6H-thiazolo[5,4-d]azepine], at dopamine D2-receptors, the inhibition constant Ki was 13 nM and the “α2-IC50 / D2-Ki” value came to 157. The IC50 at alpha-2 receptors is 2050 nM.

As for `Nc1nc2c(s1)CCN(CC=Cc1ccccc1N)CC2` [Example 16, 2-Amino-6-(3-(2-amino-phenyl)allyl)-4,5,7,8-tetrahydro-6H-thiazolo[5,4-d]azepine], at dopamine D2-receptors, the Ki came to 1.4 nM and the “α2-IC50 / D2-Ki” value is listed as 285. Moreover, on alpha-2 receptors, the 50% inhibitory concentration (IC50) was 400 nM.

Turning to `Nc1nc2c(s1)CCN(CC=Cc1ccccc1-c1ccccc1)CC2` [Example 4v, 2-Amino-6-(3-(2-biphenyl)allyl)-4,5,7,8-tetrahydro-6H-thiazolo[5,4-d]azepine], at dopamine D2-receptors, the affinity, expressed as Ki, was 8 nM and the “α2-IC50 / D2-Ki” value is given as 287. The IC50 at alpha-2 receptors is 2300 nM.

`Nc1nc2c(s1)CCN(CC#Cc1ccccn1)CC2` [Example 10, 2-Amino-6-(3-(2-pyridyl)-2-propyn-1-yl)-4,5,7,8-tetrahydro-6H-thiazolo[5,4-d]azepine]: at dopamine D2-receptors, the Ki came to 17 nM and the “α2-IC50 / D2-Ki” value is 882. Further, at alpha-2 receptors, the IC50 came out at 15000 nM.

Consider `Cl.Cl.Nc1nc2c(s1)CCN(CCCc1ccccc1)CC2` [Example 3b, 2-Amino-6-(3-phenyl-propyl)-4,5,7,8-tetrahydro-6H-thiazolo[5,4-d]azepine-dihydrochloride], for which, at dopamine D2-receptors, the Ki is 24 nM and the “α2-IC50 / D2-Ki” value is listed as 145. On alpha-2 receptors, the IC50 was 810 nM.

`Nc1nc2c(s1)CCN(CC(=Cc1ccccc1)c1ccccc1)CC2` [Example 8o]: at dopamine D2-receptors, the Ki was found to be 14 nM and the “α2-IC50 / D2-Ki” value was determined as 235. Moreover, on alpha-2 receptors, the IC50 is 3300 nM.

Regarding `COc1cccc(C=CCN2CCc3nc(N)sc3CC2)c1OC` [Example 4o, 2-Amino-6-(3-(2,3-dimethoxy-phenyl)allyl)-4,5,7,8-tetrahydro-6H-thiazolo[5,4-d]azepine], on dopamine D2-receptors, the inhibition constant (Ki) amounted to 1.3 nM and the “α2-IC50 / D2-Ki” value came out at 423. Besides, the IC50 on alpha-2 receptors worked out at 550 nM.

`Nc1nc2c(s1)CCN(CC=Cc1ccc(OCc3ccccc3)cc1)CC2` [Example 4z, 2-Amino-6-(3-(4-benzyloxy-phenyl)allyl)-4,5,7,8-tetrahydro-6H-thiazolo[5,4-d]azepine]: at dopamine D2-receptors, affinity was put at a Ki of 8.4 nM and the “α2-IC50 / D2-Ki” value came to 452. Further, on alpha-2 receptors, the half-inhibitory concentration (IC50) was 3800 nM.

Consider `Nc1nc2c(s1)CCN(CC=Cc1ccccc1[N+](=O)[O-])CC2` [Example 4g, 2-Amino-6-(3-(2-nitro-phenyl)allyl)-4,5,7,8-tetrahydro-6H-thiazolo[5,4-d]azepine], for which, at dopamine D2-receptors, the affinity, expressed as Ki, was 2 nM and the “α2-IC50 / D2-Ki” value came to 120. Besides, the IC50 at alpha-2 receptors came out at 240 nM.

On to `Nc1nc2c(s1)CCN(CC=Cc1ccccc1O)CC2` [Example 15, 2-Amino-6-(3-(2-hydroxy-phenyl)allyl)-4,5,7,8-tetrahydro-6H-thiazolo[5,4-d]azepine], for which, at dopamine D2-receptors, the Ki amounted to 0.95 nM and the “α2-IC50 / D2-Ki” value was determined as 621. At alpha-2 receptors, the concentration for half-maximal inhibition (IC50) stood at 590 nM.

As to `Nc1nc2c(s1)CCN(CC=Cc1cccc(Cl)n1)CC2` [Example 11, 2-Amino-6-(3-(6-chloro-2-pyridyl)allyl)-4,5,7,8-tetrahydro-6H-thiazolo[5,4-d]azepine], on dopamine D2-receptors, the Ki turned out to be 3.2 nM and the “α2-IC50 / D2-Ki” value came out at 256. In addition, on alpha-2 receptors, the half-maximal inhibitory concentration (IC50) was determined as 820 nM.

As to `CC(C)COc1ccc(C=CCN2CCc3nc(N)sc3CC2)cc1` [Example 8n, 2-Amino-6-(3-(4-isobutoxy-phenyl)allyl)-4,5,7,8-tetrahydro-6H-thiazolo[5,4-d]azepine], at dopamine D2-receptors, affinity was put at a Ki of 15 nM and the “α2-IC50 / D2-Ki” value was determined as 133. In addition, the IC50 at alpha-2 receptors is 2000 nM.

On to `Cc1nc(C=CCN2CCc3nc(N)sc3CC2)cs1` [Example 9, 2-Amino-6-(3-(2-methyl-4-thiazolyl)allyl)-4,5,7,8,-tetrahydro-6H-thiazolo[5,4-d]azepine-semihydrate], for which, on dopamine D2-receptors, the Ki worked out at 6.7 nM and the “α2-IC50 / D2-Ki” value is given as 79. Besides, the IC50 on alpha-2 receptors was 530 nM.
